Patent EP1900728A1 (Genecare Research Institute Co., Ltd, priority 2005, dated 2006)
Where two headings read alike, the source gives them in different places.

Columns and labels:
[1] = target: T1, IκBα ubiquitinating enzyme (SCF complex: ROC1, Cullin1, Skp1, His-TrCP1; with E1, UbcH5b) (Homo sapiens, UniProt P62877+P63208+Q13616+Q9Y297); experiment: Measurement of ubiquitinating enzyme activity (IκBα ubiquitination, time-resolved fluorescence with Eu(K)-labeled ubiquitin and XL665-labeled anti-GST antibody); type: biochemical
T1 construct: His (polyhistidine); made in house; host or cells: insect cells (baculovirus) for the SCF complex and His-E1; E. coli for His-UBCH5b
T1 sequence (Q9Y297 whole entry): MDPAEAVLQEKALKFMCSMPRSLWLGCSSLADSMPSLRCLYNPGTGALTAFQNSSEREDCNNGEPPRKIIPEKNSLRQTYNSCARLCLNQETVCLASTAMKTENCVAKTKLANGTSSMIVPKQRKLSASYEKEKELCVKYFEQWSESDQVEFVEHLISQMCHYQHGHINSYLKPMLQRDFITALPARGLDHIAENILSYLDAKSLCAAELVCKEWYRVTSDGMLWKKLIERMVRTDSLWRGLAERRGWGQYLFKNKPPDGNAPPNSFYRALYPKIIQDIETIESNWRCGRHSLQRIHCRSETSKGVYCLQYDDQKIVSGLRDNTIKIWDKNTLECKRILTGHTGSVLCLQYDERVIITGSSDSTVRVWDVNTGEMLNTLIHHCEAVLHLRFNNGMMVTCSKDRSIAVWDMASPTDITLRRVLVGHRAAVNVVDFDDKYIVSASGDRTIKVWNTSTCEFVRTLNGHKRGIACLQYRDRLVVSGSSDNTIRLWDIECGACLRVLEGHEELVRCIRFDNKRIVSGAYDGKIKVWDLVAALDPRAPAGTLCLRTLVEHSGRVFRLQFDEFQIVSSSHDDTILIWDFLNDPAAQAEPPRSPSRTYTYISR
T1 sequence (Q13616 whole entry): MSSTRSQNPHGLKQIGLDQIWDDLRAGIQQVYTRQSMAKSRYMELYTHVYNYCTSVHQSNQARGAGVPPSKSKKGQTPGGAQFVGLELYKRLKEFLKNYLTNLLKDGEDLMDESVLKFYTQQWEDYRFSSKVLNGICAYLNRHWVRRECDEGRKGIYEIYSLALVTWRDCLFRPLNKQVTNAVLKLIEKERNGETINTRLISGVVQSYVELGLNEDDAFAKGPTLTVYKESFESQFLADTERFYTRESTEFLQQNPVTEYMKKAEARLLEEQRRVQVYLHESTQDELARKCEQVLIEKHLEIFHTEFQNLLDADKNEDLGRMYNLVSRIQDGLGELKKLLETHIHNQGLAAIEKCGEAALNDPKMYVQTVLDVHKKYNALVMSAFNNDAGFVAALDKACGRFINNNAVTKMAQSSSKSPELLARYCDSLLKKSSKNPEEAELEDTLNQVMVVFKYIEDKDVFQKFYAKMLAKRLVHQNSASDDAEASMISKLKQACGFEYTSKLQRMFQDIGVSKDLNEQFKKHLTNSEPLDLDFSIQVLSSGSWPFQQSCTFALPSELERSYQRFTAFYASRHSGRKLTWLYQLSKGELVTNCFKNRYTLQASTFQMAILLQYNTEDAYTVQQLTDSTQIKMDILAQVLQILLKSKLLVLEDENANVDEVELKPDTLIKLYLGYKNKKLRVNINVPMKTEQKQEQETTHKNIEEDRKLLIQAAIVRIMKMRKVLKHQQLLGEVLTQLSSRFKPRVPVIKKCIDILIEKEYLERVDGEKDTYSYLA
T1 sequence (P63208 whole entry): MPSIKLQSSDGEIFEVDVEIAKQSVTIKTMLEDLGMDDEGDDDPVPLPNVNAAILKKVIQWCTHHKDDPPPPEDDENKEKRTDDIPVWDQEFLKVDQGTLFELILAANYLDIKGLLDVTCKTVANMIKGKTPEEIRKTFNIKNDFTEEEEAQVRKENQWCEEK
T1 sequence (P62877 whole entry): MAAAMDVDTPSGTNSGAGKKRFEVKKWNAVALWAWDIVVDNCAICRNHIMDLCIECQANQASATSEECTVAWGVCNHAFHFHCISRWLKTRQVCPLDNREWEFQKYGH
How it was run: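 Human SCF complex with E1 and UbcH5b ubiquitinated GST-IκBα pre-phosphorylated by IKKβ (2 mM ATP, pH 7.4, 1 h, RT), with Eu(K)-ubiquitin, 30 min RT. Stopped with EDTA, XL665 anti-GST added for 2 h; 665/620 nm TR-FRET ratio. % inhibition versus no-compound control and no-SCF blank gave IC50.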

[2] = system: ICAM-1 expression in HT-29 cells; experiment: Measurement of ICAM-1 expressing activity (TNFα-induced ICAM-1 expression, cell ELISA); type: cell-based; conditions: Homo sapiens, Table 6, cell activity inhibition test by method (3), read-out: EVALUATION (IC50 class, inhibition of cell activity)
Procedure: Method 2: Measurement of ICAM-1 expressing activity
2.0 x 10^4 HT-29 cells (ATCC) were plated onto a 96-well plate, and the cells were cultured for 48 hours using a McCoy' 5A medium (GIBCO) containing 10% inactivated fetal calf serum. The culture medium was removed, a culture medium containing a compound to be evaluated (final DMSO concentration of 0.5%) was added, and this was incubated at 37°C for 30 minutes. Thirty ng/mL of human TNFα (GIBCO) was added, and this was incubated at 37°C for 4 hours. After washing once with a washing solution (PBS containing 0.05% Tween 20), ice-cooled methanol was added, and this was left on ice for 10 minutes and then fixed. After removing methanol, PBS containing 1% BSA was added, and blocking was performed by letting this stand at room temperature for 30 minutes. Anti-ICAM-1 antibody (Santa Cruz Biotechnology) was added, and this was left to stand at room temperature for 1 hour. After washing with the washing solution, POD-labeled secondary antibody was added, and this was left to stand at room temperature for 30 minutes. This was washed, 100 µL of 100 mM citric acid buffer (pH4.2) containing 1 mM TMBZ and 0.03% H2O2 was added, and this was reacted at room temperature for 15 minutes. The reaction was terminated with 100 µL of 2 N H2SO4, and the absorbance at 450 nm was measured using ARVO-HTS (Perkin Elmer).
When cells are stimulated with TNFα, IκBα is degraded after ubiquitination resulting in the activation of NFκB and the promotion of the expression of adhesion factor ICAM-1. Therefore, the suppression of ICAM-1 expression described above serves as an indicator to determine the effectiveness of the compound in the cells.

[3] = enzyme activity inhibition test, method (1), Table 5, read-out: EVALUATION

| Structure (SMILES) | IC50 [1, 3] [µM] | IC50 [2] [µM] | IC50 [1] [µM] |
| --- | --- | --- | --- |
| COc1cc(/C=C2\C(=O)N(c3ccc(S(N)(=O)=O)cc3)N=C2C)ccc1OS(=O)(=O)c1ccc(C)cc1 [Compound 202] | 10 to 20 | < 40 | – |
| CC1=NN(c2ccc(S(N)(=O)=O)cc2)C(=O)/C1=C\c1ccc(NC(=O)c2ccccc2)cc1 [Compound 224] | < 10 | 10 to 20 | – |
| COc1cc(/C=C2\C(=O)N(c3ccc(C(=O)O)cc3)N=C2c2ccoc2)ccc1O [Compound 244] | < 10 | 10 to 20 | – |
| O=C(O)c1ccc(N2N=C(c3ccoc3)/C(=C/c3ccc(-n4cncn4)cc3)C2=O)cc1 [Compound 252] | < 10 | < 40 | – |
| CC1=NN(Cc2cccc(O)c2)C(=O)/C1=C\c1ccc(-c2ccccc2F)o1 [Compound 185] | < 10 | 10 to 20 | – |
| CC1=NN(c2ccc(S(N)(=O)=O)cc2)C(=O)/C1=C\c1ccc(Oc2ccccc2)cc1 [Compound 213] | 10 to 20 | < 10 | – |
| CC1=NN(c2ccc(S(N)(=O)=O)cc2)C(=O)/C1=C\c1ccc(OCC(N)=O)cc1 [Compound 208] | < 10 | < 40 | – |
| CC1=NN(c2ccc(C(=O)O)cc2)C(=O)/C1=C\c1ccc(-n2ccnc2)cc1 [Compound 258] | < 10 | 10 to 20 | – |
| CC1=NN(c2ccc(C(=O)O)cc2)C(=O)/C1=C\c1ccc(N2CCCC2)cc1 [Compound 256] | 10 to 20 | < 40 | – |
| CC1=NN(c2ccc(C(=O)O)cc2)C(=O)C1=Cc1ccc(OCCCN(C)C)cc1 [Compound 543] | – | < 10 | < 10 |
| CC1=NN(c2ccccc2)C(=O)C1=Cc1ccc(Oc2ccccc2)cc1 [Compound 212] | – | 10 to 20 | 10 to 20 |
| CC1=NN(c2ccc(S(N)(=O)=O)cc2)C(=O)/C1=C\c1ccc(-n2cccn2)cc1 [Compound 150] | < 10 | < 10 | – |
| CC1=NN(c2ccc(S(N)(=O)=O)cc2)C(=O)/C1=C\c1ccc(OCC(=O)O)cc1 [Compound 214] | 10 to 20 | < 40 | – |
| COC(=O)N1CCN(c2ccc(/C=C3\C(=O)N(c4ccccc4)N=C3c3ccoc3)cc2)CC1 [Compound 14] | < 10 | < 40 | – |
| COc1cc(/C=C2\C(=O)N(Cc3cccc(O)c3)N=C2C)ccc1O [Compound 128] | 10 to 20 | < 10 | – |
| CC1=NN(c2ccccc2)C(=O)/C1=C\c1ccc(-c2ccccc2F)o1 [Compound 19] | < 10 | < 40 | – |
| O=C(O)c1ccc(N2N=C(c3ccoc3)/C(=C/c3ccc(N4CCCC4)cc3)C2=O)cc1 [Compound 248] | < 10 | 10 to 20 | – |
| CC1=NN(c2ccc(S(N)(=O)=O)cc2)C(=O)/C1=C\c1ccc2[nH]ccc2c1 [Compound 133] | < 10 | < 40 | – |
| COC(=O)N1CCN(c2ccc(C=C3C(=O)N(c4ccccc4)N=C3Cc3ccccc3)cc2)CC1 [Compound 25] | – | < 40 | 10 to 20 |
| CC1=NN(c2ccccc2)C(=O)/C1=C\c1ccc(N2CCNCC2)cc1 [Compound 200] | 10 to 20 | < 40 | – |
| CC1=NN(c2cccc(S(N)(=O)=O)c2)C(=O)C1=Cc1ccc(N2CCN(C(=O)OC(C)(C)C)CC2)cc1 [Compound 180] | – | < 40 | 10 to 20 |
| CCCNC(=O)COc1ccc(C=C2C(=O)N(c3ccc(S(N)(=O)=O)cc3)N=C2C)cc1 [Compound 211] | – | < 40 | 10 to 20 |
| COc1ccc(C2=NN(c3ccc(C(=O)O)cc3)C(=O)C2=Cc2ccc3ccccc3c2)cc1OC [Compound 333] | – | 10 to 20 | 10 to 20 |
| CC1=NN(c2ccc(S(N)(=O)=O)cc2)C(=O)/C1=C\c1ccc(-c2ccccc2)cc1 [Compound 117] | < 10 | 10 to 20 | – |
| O=C(O)c1ccc(N2N=C(c3ccoc3)/C(=C/c3nccs3)C2=O)cc1 [Compound 249] | 10 to 20 | < 40 | – |
| COc1cc(C=C2C(=O)N(c3ccc(C(=O)O)cc3)N=C2c2ccc(F)cc2)ccc1OCc1ccccc1 [Compound 326] | – | < 40 | < 10 |

More lines, main results first:

| IC50 [1, 3] [µM] | IC50 [2] [µM] | Structure (SMILES) | IC50 [1] [µM] |
| --- | --- | --- | --- |
| < 10 | < 40 | CC1=NN(c2ccc(C(=O)O)cc2)C(=O)/C1=C\c1ccc(-c2cccc(Cl)c2)o1 [Compound 454] | – |
| < 10 | < 40 | CC1=NN(c2cccc(C(=O)O)c2)C(=O)/C1=C\c1ccc2c(ccn2C(=O)c2cccn2C)c1 [Compound 532] | – |
| < 10 | 10 to 20 | Cn1cc(-c2ccc(/C=C3\C(=O)N(c4cccc(C(=O)O)c4)N=C3c3ccoc3)o2)cn1 [Compound 491] | – |
| 10 to 20 | 10 to 20 | CCCCC1=NN(c2ccc(C(=O)O)cc2)C(=O)/C1=C\c1ccc(-n2cncn2)cc1 [Compound 306] | – |
| < 10 | < 40 | CCCCC1=NN(c2ccc(C(=O)O)cc2)C(=O)/C1=C\c1ccc(N2CCN(c3ccccc3)CC2)cc1 [Compound 434] | – |
| < 10 | 10 to 20 | O=C(O)c1ccc(N2N=C(C3CC3)/C(=C/c3ccc(-n4cccn4)cc3)C2=O)cc1 [Compound 322] | – |
| < 10 | < 10 | O=C(O)c1ccc(N2N=C(Cc3ccccc3)/C(=C/c3ccc(-c4ccccc4F)o3)C2=O)cc1 [Compound 267, 4-{3-Benzyl-4-[5-(2-fluorophenyl)-furan-2-ylmethylenc]-5-oxo-4.5-dihydropyrazol-1-yl} benzoic acid] | – |
| < 10 | < 10 | COc1ccc(C2=NN(c3ccc(C(=O)O)cc3)C(=O)/C2=C\c2ccc3ccccc3c2)cc1 [Compound 325] | – |
| < 10 | < 10 | O=C(O)c1ccc(N2N=C(C3CC3)/C(=C/c3ccc4c(c3)OCCO4)C2=O)cc1 [Compound 319] | – |
| < 10 | < 40 | O=C(O)c1ccc(N2N=C(C3CC3)/C(=C/c3ccc(-n4cncn4)cc3)C2=O)cc1 [Compound 323] | – |
| < 10 | 10 to 20 | CC1=NN(c2ccc(C(=O)O)cc2)C(=O)/C1=C\c1ccc2occc2c1 [Compound 370] | – |
| < 10 | < 10 | COCC1=NN(c2ccc(C(=O)O)cc2)C(=O)/C1=C\c1ccc(CO)o1 [Compound 328] | – |
| < 10 | < 40 | O=C(O)c1ccc(N2N=C(c3ccoc3)/C(=C/c3ccc4[nH]ccc4c3)C2=O)cc1 [Compound 477] | – |
| < 10 | < 10 | CC1=NN(c2ccc(C(=O)O)cc2)C(=O)/C1=C\c1ccc2c(c1)OCCO2 [Compound 259] | – |
| < 10 | < 40 | CC1=NN(c2cccc(C(=O)N3CCOCC3)c2)C(=O)/C1=C\c1ccc2c(c1)OCCO2 [Compound 411] | – |
| < 10 | 10 to 20 | CC1=NN(c2ccc(C(=O)O)cc2)C(=O)/C1=C\c1ccc(OCC(N)=O)cc1 [Compound 536] | – |
| < 10 | < 40 | CC1=NN(c2cccc(C(=O)O)c2)C(=O)/C1=C\c1ccc2c(ccn2C(=O)C2CC2)c1 [Compound 530] | – |
| < 10 | < 10 | CC(=O)c1ccc(-c2ccc(/C=C3\C(=O)N(c4ccc(C(=O)O)cc4)N=C3C)o2)cc1 [Compound 502] | – |
| 10 to 20 | 10 to 20 | CCCCC1=NN(c2ccc(C(=O)O)cc2)C(=O)/C1=C\c1cccc2nccnc12 [Compound 297] | – |
| 10 to 20 | < 40 | COCCC1=NN(c2ccc(C(=O)O)cc2)C(=O)/C1=C\c1ccc(-c2cnn(C)c2)o1 [Compound 512] | – |
| < 10 | 10 to 20 | CC1=NN(c2ccc(C(=O)N3CCCC3CO)cc2)C(=O)/C1=C\c1ccc2c(c1)OCCO2 (stereo not shown) [Compound 410] | – |
| 10 to 20 | < 40 | CC1=NN(c2ccc(C(=O)O)cc2)C(=O)/C1=C\c1ccc(F)cc1 [Compound 351] | – |
| < 10 | 10 to 20 | O=C(O)c1ccc(N2N=C(c3ccncc3)/C(=C/c3ccc(N4CCCC4)cc3)C2=O)cc1 [Compound 287] | – |
| < 10 | < 40 | CCCCC1=NN(c2ccc(C(=O)O)cc2)C(=O)/C1=C\c1ccc(OCc2ccccc2)c(OC)c1 [Compound 296] | – |
| < 10 | < 40 | CC1=NN(c2ccc(C(=O)O)cc2)C(=O)/C1=C\c1cc2ccccc2o1 [Compound 429] | – |
| < 10 | < 40 | CC1=NN(c2ccc(C(=O)O)cc2)C(=O)/C1=C\c1ccc2c(ccn2Cc2csc(C)n2)c1 [Compound 500] | – |
| 10 to 20 | 10 to 20 | Cn1cc(-c2ccc(/C=C3\C(=O)N(c4ccc(C(=O)O)cc4)N=C3Cc3ccccc3)o2)cn1 [Compound 518] | – |
